Results from EP3564214B1, “INDAZOLE DERIVATIVES AS MODULATORS OF THE CANNABINOID SYSTEM” (Universita' Degli Studi G. D'annunzio Chieti - Pescara, priority 2018, dated 2019).
Read-outs that look alike come from different tables or passages of the source.

Key:
[1] = system: CB receptor-associated G-proteins; test: Ligand stimulated [35S]GTPγS binding assay in rat brain membrane homogenate; assay type: biochemical; conditions: for Emax (%) ±SEM: specific [35S]GTPγS binding, basal set as 100%; for Emax (%) ±SEM / EC50: rat brain membranes; for EC50: [35S]GTPγS binding; for G-protein stimulation (functional character): rat brain membrane homogenate
Protocol: (§1) Wistar rats were locally bred and handled according to the European Communities Council Directives (86/609/ECC) and the Hungarian Act for the Protection of Animals in Research (XXVlll.tv. Section 32). Crude membrane fractions were prepared from the brain without cerebellum. Brains were quickly removed from the euthanized rats and directly put in ice-cold 50 mM Tris-HCl buffer (pH 7.4). The collected tissue was then homogenized in 30 volumes (v/w) of ice-cold buffer with a Braun Teflon-glass homogenizer at the highest rpm. The homogenate was centrifuged at 20,000 g for 25 min and the resulting pellet was suspended in the same volume of cold buffer followed by incubation at 37°C for 30 min to remove endogenous ligands. Centrifugation was then repeated. The final pellets were taken up in five volumes of 50 mM Tris-HCl (pH 7.4) buffer containing 0.32 M sucrose and stored at -80°C. Prior to the experiment, aliquots were thawed and centrifuged at 20,000 g for 25 min and the were resuspended in 50 mM Tris-HCl (pH 7.4), homogenized with a Dounce in followed by the determination of the protein concentration by the method of Bradford.
(§2) Rat brain membranes (30 µg protein/tube) prepared as described above, were incubated with 0.05 nM [^35S]GTPγS (PerkinElmer) and 10^-10-10^-5 M unlabeled ligands in the presence of 30 µM GDP, 100 mM NaCl, 3 mM MgCl2 and 1 mM EGTA in 50 mM Tris-HCl buffer (pH 7.4) for 60 min at 30°C. Basal [^35S]GTPγS binding was measured in the absence of ligands and set as 100%. Nonspecific binding was determined by the addition of 10 µM unlabeled GTPγS and subtracted from total binding. Incubation, filtration and radioactivity measurement of the samples were carried out as described above.
(§3) Results are expressed as means ± S.E.M. of at least three independent experiments each performed in duplicate. In competition binding studies, the inhibitory constants (Ki) were calculated from the inflection points of the displacement curves using non-linear least-square curve fitting and the Cheng- Prusoff equation. All data and curves were analyzed by GraphPad Prism 5.0 (San Diego, CA, USA). In [^35S]GTPγS binding studies, data were expressed as the percentage stimulation of the specific [^35S]GTPγS binding over the basal activity and are given as means ± S.E.M. Each experiment was performed in triplicate and analyzed with sigmoid dose-response curve fitting to obtain potency (EC50) and efficacy (Emax) values. Statistical comparison was done by analysis of variance (one-way ANOVA) followed by the Bonferroni multiple comparison test of GraphPad Prism 5.0 (San Diego, CA, USA), P< 0.05 was chosen to indicate significant differences.

CB receptors = molecular target: T1, CB receptors (Rattus norvegicus, UniProt P20272); test: [3H]WIN55212-2 competition binding in rat brain membrane homogenate; conditions: for displace [3H]WIN55212-2: rat brain membrane homogenate
T1 construct: Crude membrane fractions were prepared from the brain without cerebellum; from tissue; host or cells: Wistar rat brain without cerebellum, crude membrane fraction
Protocol: as §1
Binding experiments were performed at 30 °C for 1 h in 50 mM Tris-HCl buffer pH 7.4 containing 2.5 mM EGTA, 5 mM MgCl2 and 0.5 mg/mL fatty acid free BSA in plastic tubes in a total assay volume of 1 mL that contained 0.3-0.5 mg/mL membrane protein.
Non-specific binding was determined in the presence of 10 µM WIN 55212-2. The incubation was terminated by diluting the samples with ice-cold wash buffer (50 mM Tris-HCl, 2.5 mM EGTA, 5 mM MgCl2, 0.5% fatty acid free BSA, pH 7.4), followed by repeated washing and rapid filtration through Whatman GF/B glass fiber filters (Whatman Ltd, Maidstone, England) presoaked with 0.1% polyethyleneimine (30 min before the filtration). Filtration was performed with a 24-well Brandel Cell Harvester (Gaithersburg, MD, USA). Filters were air-dried and immersed into Ultima Gold MV scintillation cocktail and then radioactivity was measured with a TRI-CARB 2100TR liquid scintillation analyzer (Packard).
as §3

CB1 receptor = molecular target: T2, CB1 receptor (Rattus norvegicus, UniProt P20272); test: CB1/CB2 receptor selectivity by [35S]GTPγS binding assay with rimonabant or AM630; assay type: biochemical; conditions: compound 10 µM; rimonabant 10 µM (CB1) vs AM630 10 µM (CB2)
T2 construct: Crude membrane fractions were prepared from the brain without cerebellum; from tissue; host or cells: Wistar rat brain without cerebellum, crude membrane fraction
Protocol: Figures represent the specific binding of the radioligand in percentage in the presence of increasing concentrations (10^-10-10^-5 M) of the indicated ligands. "Total" on the x-axis indicates the total specific binding of the radioligand, which is measured in the absence of the unlabeled compounds. […] Figures represent relative specific binding of [^35S]GTPγS in the presence of increasing concentrations (10^-11-10^-5 M) of the indicated compounds. […] The specific binding of [^35S]GTPγS is represented in percentage in the presence or absence of 10 µM rimonabant (CB1 antagonist/inverse agonist) or AM630 (CB2 antagonist/inverse agonist). Data are expressed as percentage of mean specific binding ± S.E.M. (n≥ 3).
as §2
In the next step the compounds were evaluated for CB1/CB2 receptor selectivity by [^35S]GTPγS binding assays. The G-protein stimulatory effect of compounds LONI 1-LONI 9 (10 µM) was reduced by the CB1 receptor antagonist/inverse agonist rimonabant (10 µM) and by the CB2 receptor antagonist/inverse agonist AM630 (10 µM), and a 3-6-fold selectivity for CB1 receptor was observed.

T2 sequence (P20272 whole entry): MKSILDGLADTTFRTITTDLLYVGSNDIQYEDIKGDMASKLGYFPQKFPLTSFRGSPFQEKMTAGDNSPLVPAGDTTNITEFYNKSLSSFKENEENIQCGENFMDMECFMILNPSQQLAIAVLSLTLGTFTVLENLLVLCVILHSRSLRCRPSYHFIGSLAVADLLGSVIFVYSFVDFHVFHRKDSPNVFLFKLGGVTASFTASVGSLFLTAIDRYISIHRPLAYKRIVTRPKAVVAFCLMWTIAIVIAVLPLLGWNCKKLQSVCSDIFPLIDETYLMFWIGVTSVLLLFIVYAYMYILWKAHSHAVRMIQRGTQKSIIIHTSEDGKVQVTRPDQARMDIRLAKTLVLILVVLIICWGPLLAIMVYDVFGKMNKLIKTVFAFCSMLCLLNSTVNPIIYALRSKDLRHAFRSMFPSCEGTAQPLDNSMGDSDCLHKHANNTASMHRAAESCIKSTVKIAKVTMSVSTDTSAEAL
T1 sequence (P20272 whole entry): as above

Compound	Emax (%) ±SEM [1]	Ki (CB receptors)	EC50 ([1]; read-out: EC50)	EC50 ([1]; read-out: potency)	G-protein stimulation (functional character) [1]	selectivity for CB1 receptor (CB1 receptor)	displace [3H]WIN55212-2 (CB receptors)	Ki (CB receptors; 1.5 nM [3H]WIN55212-2, rat brain membranes, mean of three independent measurements (S.E.M. 5-12%), read-out: Ki (nM)*)
COC(=O)[C@H](CC(C)C)NC(=O)c1nn(Cc2ccc(Cl)cc2Cl)c2ccccc12 [LONI 8, (S)-methyl 2-(1-(2,4-dichlorobenzyl)-1H-indazole-3-carboxamido)-4-methylpentanoate]	122 ± 4.6%	63 nM	–	–	–	–	–	–
CC(C)(C)[C@H](NC(=O)c1nn(Cc2ccc(Cl)cc2Cl)c2ccccc12)C(=O)O [LONI 1, (S)-2-(1-(2,4-dichlorobenzyl)-1H-indazole-3-carboxamido)-3,3-dimethylbutanoic acid]	84 ± 6.6%	0.08 nM	2800 nM	1800 to 3200 nM	weak inverse agonist activity	–	–	–
CC(C)C[C@H](NC(=O)c1nn(Cc2ccc(Cl)cc2Cl)c2ccccc12)C(N)=O [LONI 9, (S)-N-(1-amino-4-methyl-1-oxopentan-2-yl)-1-(2,4-dichlorobenzyl)-1H-indazole-3-carboxamide]	120 ± 5.9%	88 nM	–	–	partial agonists	6 fold	–	–
COC(=O)c1nn(Cc2ccc(Cl)cc2Cl)c2ccccc12 [LONI C, reference compound]	69 ± 2.6%	–	3160 nM	–	weak inverse agonist	–	neither LONI A nor its derivatives LONI B and LONI C could displace [^3H]WIN55212-2	–
CC(C)[C@H](NC(=O)c1nn(Cc2ccc(Cl)cc2Cl)c2ccccc12)C(N)=O [LONI 6, (S)-N-(1-amino-3-methyl-1-oxobutan-2-yl)-1-(2,4-dichlorobenzyl)-1H-indazole-3-carboxamide]	135 ± 4.9%	17 nM	–	–	partial agonists	–	–	–
CC(C)C[C@H](NC(=O)c1nn(Cc2ccc(Cl)cc2Cl)c2ccccc12)C(=O)O [LONI 7, (S)-2-(1-(2,4-dichlorobenzyl)-1H-indazole-3-carboxamido)-4-methylpentanoic acid]	86 ± 9.3%	43 nM	1870 nM	1800 to 3200 nM	weak inverse agonist activity	–	–	–
COC(=O)[C@@H](NC(=O)c1nn(Cc2ccc(Cl)cc2Cl)c2ccccc12)C(C)(C)C [LONI 2, (S)-methyl 2-(1-(2,4-dichlorobenzyl)-1H-indazole-3-carboxamido)-3,3-dimethylbutanoate]	143 ±5.7%	3.1 nM	8.4 nM	–	–	–	–	–
COC(=O)[C@@H](NC(=O)c1nn(Cc2ccc(Cl)cc2Cl)c2ccccc12)C(C)C [LONI 5, (S)-methyl 2-(1-(2,4-dichlorobenzyl)-1H-indazole-3-carboxamido)-3-methylbutanoate]	140 ± 3.7%	1.8 nM	–	–	–	–	–	–
CC(C)[C@H](NC(=O)c1nn(Cc2ccc(Cl)cc2Cl)c2ccccc12)C(=O)O [LONI 4, (S)-2-(1-(2,4-dichlorobenzyl)-1H-indazole-3-carboxamido)-3-methylbutanoic aci]	82 ± 10.6%	2.6 nM	3290 nM	1800 to 3200 nM	weak inverse agonist activity	3 fold	–	–
NC(=O)c1nn(Cc2ccc(Cl)cc2Cl)c2ccccc12 [LONI B, reference compound]	70 ± 8.7%	–	2780 nM	–	weak inverse agonist	–	neither LONI A nor its derivatives LONI B and LONI C could displace [^3H]WIN55212-2	–
O=C(O)c1nn(Cc2ccc(Cl)cc2Cl)c2ccccc12 [LONI A, Lonidamine, reference compound]	–	–	–	–	didn't show G-protein stimulation	–	neither LONI A nor its derivatives LONI B and LONI C could displace [^3H]WIN55212-2	–
CC(C)(C)[C@H](NC(=O)c1nn(Cc2ccc(Cl)cc2Cl)c2ccccc12)C(N)=O [LONI 3, (S)-N-(1-amino-3,3-dimethyl-1-oxobutan-2-yl)-1-(2,4-dichlorobenzyl)-1H-indazole-3 carboxamide]	139 ± 4.5%	17 nM	126 nM	–	partial agonists	6 fold	–	–
CCCCCn1cc(C(=O)c2cccc3ccccc23)c2ccccc21 [JWH-018, reference compound]	163 ± 5.2%	–	16 nM	–	–	–	–	3.5 nM
